Assay results: patent publication US11076598B2, “Peroxide-based disinfecting solutions containing inorganic salts” (Diversey, Inc., priority 2017, dated 2021)

Assay: Antimicrobial efficacy of the inorganic salt on its own
Details: salt alone at the concentration employed in the solutions

Row | SMILES | antimicrobial efficacy of the salt on its own
1 | N.N.O=S(=O)(O)O [ammonium sulphate] | no antimicrobial efficacy on its own
2 | [Cl-].[Na+] [sodium chloride] | no antimicrobial efficacy on its own
